Patent US20240238423A9, “TETRAHYDROISOQUINOLINE HETEROBIFUNCTIONAL BCL-XL DEGRADERS” (Treeline Biosciences, Inc., priority 2022, published 2024)
Like-named read-outs stand apart in the source and are kept apart here.

Molecular target: T1, Human BCL-XL protein (N-terminal HiBiT tagged BCL-XL in HT1080 cells) (Homo sapiens, UniProt Q07817)
T1 construct: expressed in transfected cells; host or cells: HT-1080 (ATCC CCL-121), stably transduced with lentivirus pLV-UBC-N-HiBiT-BCL-XL-PGK-puro and selected with puromycin
Experiment: HiBiT based degradation assay
Type: cell-based
Conditions: HT1080 cells expressing HiBiT-BCL-XL; for Ymin (24 h) / Ymin (6 h): BCL-XL degradation normalized with DMSO control; for DC50: BCL-XL degradation
Summary of the method: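 This HiBiT degradation assay measured loss of BCL-XL in HT1080 cells that stably express an N-terminal HiBiT-BCL-XL fusion delivered by lentivirus. Cells were added to compound-spotted 384-well plates, and luminescence was read on a PHERAstar FSX reader. Signal was expressed relative to DMSO controls, curves were fitted by four-parameter logistic regression, and for hook-shaped curves the Ymin point served as the bottom plateau when calculating EC50.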

T1 sequence (Q07817 whole entry): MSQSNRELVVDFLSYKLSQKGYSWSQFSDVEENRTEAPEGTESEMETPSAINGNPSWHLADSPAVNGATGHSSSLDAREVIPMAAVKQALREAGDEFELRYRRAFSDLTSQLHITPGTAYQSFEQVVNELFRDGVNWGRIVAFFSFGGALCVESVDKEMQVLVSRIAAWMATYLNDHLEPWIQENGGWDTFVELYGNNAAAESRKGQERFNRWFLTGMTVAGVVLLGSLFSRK

Row | SMILES | Ymin (24 h) | DC50 (24 h, read-out: EC50 (24 h)) [nM] | Ymin (6 h) | DC50 (6 h, read-out: EC50 (6 h)) [nM]
1 | Cc1c(OCCC[C@H]2CCN(CC(=O)Nc3ccc4c(C5CCC(=O)NC5=O)nn(C)c4c3)C2)cccc1-c1ccc(N2CCc3cccc(C(=O)Nc4nc5ccccc5s4)c3C2)nc1C(=O)O (stereo partly drawn) [Compound 160b, 6-(8-(benzo[d]thiazol-2-ylcarbamoyl)-3,4-dihydroisoquinolin-2(1H)-yl)-3-(3-(3-((3S)-1-(2-((3-(2,6-dioxopiperidin-3-yl)-1-methyl-1H-indazol-6-yl)amino)-2-oxoethyl)pyrrolidin-3-yl)propoxy)-2-methylphenyl)picolinic acid] | A (Ymin < 50%) | < 100 |  | 
2 | Cc1c(O[C@H]2CC[C@H](CC[C@@H](C)N3CCN(c4ccc5c(C6CCC(=O)NC6=O)nn(C)c5c4)CC3)CC2)cccc1-c1ccc(N2CCc3cccc(C(=O)Nc4nc5ccccc5s4)c3C2)nc1C(=O)O (single isomer, unassigned) [Compound 281b] | A (Ymin < 50%) | < 100 |  | 
3 | Cc1c(OCCCN2CCN(CC(=O)Nc3ccc4c(C5CCC(=O)NC5=O)nn(C)c4c3)[C@H](C(F)(F)F)C2)cccc1-c1ccc(N2CCc3cccc(C(=O)Nc4nc5ccccc5s4)c3C2)nc1C(=O)O (stereo partly drawn) [Compound 187a, 6-(8-(benzo[d]thiazol-2-ylcarbamoyl)-3,4-dihydroisoquinolin-2(1H)-yl)-3-(3-(3-((3S)-4-(2-((3-(2,6-dioxopiperidin-3-yl)-1-methyl-1H-indazol-6-yl)amino)-2-oxoethyl)-3-(trifluoromethyl)piperazin-1-yl)propoxy)-2-methylphenyl)picolinic acid] | B (50% ≤ Ymin < 70%) | < 100 | B (50% ≤ Ymin < 70%) | 100 to 1000

Second part, the molecule after the results:

Row | Ymin (24 h) | DC50 (24 h, read-out: EC50 (24 h)) [nM] | Ymin (6 h) | DC50 (6 h, read-out: EC50 (6 h)) [nM] | SMILES
4 | B (50% ≤ Ymin < 70%) | < 100 |  |  | Cc1c(Oc2ccc(CCCC(=O)N3CCN(c4cccc5c(C6CCC(=O)NC6=O)nn(C)c45)CC3)cc2)cccc1-c1ccc(N2CCc3cccc(C(=O)Nc4nc5ccccc5s4)c3C2)nc1C(=O)O (stereo not drawn) [Compound 191, 6-(8-(benzo[d]thiazol-2-ylcarbamoyl)-3,4-dihydroisoquinolin-2(1H)-yl)-3-(3-(4-(4-(4-(3-(2,6-dioxopiperidin-3-yl)-1-methyl-1H-indazol-7-yl)piperazin-1-yl)-4-oxobutyl)phenoxy)-2-methylphenyl)picolinic acid]
5 | C (Ymin ≥ 70%) | 1000 to 10000 | C (Ymin ≥ 70%) | 1000 to 10000 | Cc1c(O[C@H]2CC[C@H](CCC(=O)Nc3ccc4c(C5CCC(=O)NC5=O)nn(C)c4c3)CC2)cccc1-c1ccc(N2CCc3cccc(C(=O)Nc4nc5ccccc5s4)c3C2)nc1C(=O)O (stereo partly drawn) [Compound 125a, 6-(8-(benzo[d]thiazol-2-ylcarbamoyl)-3,4-dihydroisoquinolin-2(1H)-yl)-3-(3-(((1r,4r)-4-(3-((3-(2,6-dioxopiperidin-3-yl)-1-methyl-1H-indazol-6-yl)amino)-3-oxopropyl)cyclohexyl)oxy)-2-methylphenyl)picolinic acid]
6 | B (50% ≤ Ymin < 70%) | < 100 |  |  | Cc1c(O[C@H]2CC[C@H](CC(F)(F)CN3CCN(c4cccc5c(C6CCC(=O)NC6=O)nn(C)c45)CC3)CC2)cccc1-c1ccc(N2CCc3cccc(C(=O)Nc4nc5ccccc5s4)c3C2)nc1C(=O)O (stereo partly drawn) [Compound 168a, 6-(8-(benzo[d]thiazol-2-ylcarbamoyl)-3,4-dihydroisoquinolin-2(1H)-yl)-3-(3-(((1r,4r)-4-(3-(4-(3-(2,6-dioxopiperidin-3-yl)-1-methyl-1H-indazol-7-yl)piperazin-1-yl)-2,2-difluoropropyl)cyclohexyl)oxy)-2-methylphenyl)picolinic acid]
7 | A (Ymin < 50%) | < 100 |  |  | Cc1c(O[C@H]2CC[C@H](CCCN3CCC(c4ccc5c(C6CCC(=O)NC6=O)nn(C)c5c4)CC3)CC2)cccc1-c1ccc(N2CCc3cccc(C(=O)Nc4nc5ccccc5s4)c3C2)nc1C(=O)O (stereo partly drawn) [Compound 269a, 6-(8-(benzo[d]thiazol-2-ylcarbamoyl)-3,4-dihydroisoquinolin-2(1H)-yl)-3-(3-(((1s,4r)-4-(3-(4-(3-(2,6-dioxopiperidin-3-yl)-1-methyl-1H-indazol-6-yl)piperidin-1-yl)propyl)cyclohexyl)oxy)-2-methylphenyl)picolinic acid]
